Reference: patent US4130514A, “Synthesis of peptides” (Armour Pharmaceutical Company, priority 1978, dated 1978)

Experiment: adrenocorticotropic activity of the purified peptides (no method described)
Details: peptide purified by carboxymethylcellulose ion-exchange chromatography and Sephadex gel filtration; result in words only

[D-ala^1, asn^25 ]-ACTH-(1-25) [[D-ala^1 ,gln^25]-ACTH-(1-25)]
adrenocorticotropic activity: found to have adrenocorticotropic activity
